Consider 17 compounds from patent publication US20260274895A1, “DE NOVO DESIGNED MEMBRANE-TRAVERSING AND ORALLY BIOAVAILABLE MACROCYCLES” (UNIVERSITY OF WASHINGTON, priority 2022, published 2026).

Read-outs that look alike come from different tables or passages of the source. Where a SMILES comes first, the peptide text is derived from it. [ ]: non-standard residue; d: D form. dNMeI = CC[C@@H](C)[C@@H](NC)C(=O)O; NMeF = CN[C@@H](Cc1ccccc1)C(=O)O; dNMeF = CN[C@H](Cc1ccccc1)C(=O)O; NMeL = CN[C@@H](CC(C)C)C(=O)O; dNMeL = CN[C@H](CC(C)C)C(=O)O; dNMeV = CN[C@@H](C(=O)O)C(C)C; NMeV = CN[C@H](C(=O)O)C(C)C; NMeA = CN[C@@H](C)C(=O)O; dNMeA = CN[C@H](C)C(=O)O; Sar = CNCC(=O)O

For data set [1] the following is noted: PAMPA, PAMPA_Papp_Avg (apparent permeability).
The conditions of data set [2]: PAMPA.
A short description of data set [3]: Plasma exposure, oral bioavailability and tolerability after single-dose IV, SQ and PO administration. The conditions noted are these: in vivo.
A short description of data set [4]: Parallel artificial membrane permeability assay (PAMPA). To be noted: average of three replicates; 16-20 hours incubation, 5% DMSO PBS.

Regarding `CC(C)C[C@@H]1C(=O)N[C@H](CC(C)C)C(=O)N2CCC[C@@H]2C(=O)N2CCC[C@H]2C(=O)N(C)[C@H](CC(C)C)C(=O)N[C@H](CC(C)C)C(=O)N2CCC[C@@H]2C(=O)N2CCC[C@H]2C(=O)N1C` [Design D8.4, pP*llpP*ll] (cyclo([dNMeL][dL][dP]P[dNMeL][dL][dP]P)), the Papp in data set [1] turned out to be 0.358 nm/s. Further, in data set [2], the “PAMPA_Papp_Avg (apparent permeability)” value was determined as 1.36 nm/s.
`CC[C@H](C)[C@@H]1NC(=O)[C@H](Cc2ccccc2)N(C)C(=O)[C@H]2CCCN2C(=O)[C@@H](CC(C)C)N(C)C(=O)[C@@H](Cc2ccccc2)NC(=O)[C@H](C(C)C)NC(=O)[C@H](CC(C)C)NC(=O)[C@H]2CCCN2C(=O)[C@H](CC(C)C)NC(=O)[C@@H]2CCCN2C1=O` [Design D10.50, LVf*lp*FIPLp] (cyclo(IPL[dP]LV[dF][dNMeL][dP][NMeF])): in data set [1], the apparent permeability coefficient (Papp) is 6.28 nm/s.
Regarding `CC[C@@H](C)[C@H]1NC(=O)[C@@H]2CCCN2C(=O)[C@@H]([C@H](C)CC)NC(=O)CN(C)C(=O)[C@H](CC(C)C)NC(=O)[C@@H](Cc2ccccc2)NC(=O)[C@H](CC(C)C)N(C)C(=O)[C@H]2CCCN2C(=O)[C@@H](CC(C)C)NC(=O)[C@H](CC(C)C)NC(=O)[C@H]2CCCN2C1=O` [Design D11.2] (cyclo(L[Sar][dI]P[dI][dP]L[dL][dP][NMeL][dF])), the bioavailability in data set [3] was 7.5 to 11%.
For `CC[C@@H](C)[C@H]1NC(=O)[C@H]([C@@H](C)CC)NC(=O)[C@H](Cc2ccccc2)N(C)C(=O)[C@H]2CCCN2C(=O)[C@@H]([C@H](C)CC)NC(=O)[C@@H]([C@H](C)CC)N(C)C(=O)[C@H](CC(C)C)NC(=O)[C@H]2CCCN2C(=O)[C@@H]2CCCN2C(=O)[C@H](C(C)C)NC(=O)[C@H]2CCCN2C1=O` [Design D11.4, VPpL*iip*FIip] (cyclo(I[dI][dP]VP[dP]L[dNMeI][dI][dP][NMeF])), the apparent permeability (Papp) in data set [1] turned out to be 18.4 nm/s.
On to `CC[C@@H](C)[C@H]1NC(=O)[C@H](C)NC(=O)[C@@H](CC(C)C)N(C)C(=O)[C@H](CC(C)C)N(C)C(=O)[C@H](C(C)C)NC(=O)[C@@H]2CCCN2C(=O)[C@@H](CC(C)C)N(C)C(=O)[C@@H](C)N(C)C(=O)[C@@H](Cc2ccccc2)NC(=O)[C@@H]2CCCN2C(=O)[C@H]2CCCN2C1=O` [Design D11.6, V*L*lAipPf*a*lP] (cyclo([dF][dNMeA][dNMeL]PV[NMeL][dNMeL]A[dI][dP]P)), for which the Papp in data set [1] was determined as 17 nm/s.
The same measure, in the same setting: the result for `CC[C@H](C)[C@@H]1NC(=O)[C@@H](CC(C)C)N(C)C(=O)[C@H](CC(C)C)N(C)C(=O)[C@@H](Cc2ccccc2)NC(=O)[C@@H](CC(C)C)N(C)C(=O)[C@H]2CCCN2C(=O)[C@H]2CCCN2C(=O)[C@@H]2CCCN2C(=O)[C@@H](C(C)C)NC(=O)[C@@H]2CCCN2C(=O)[C@H](C)NC1=O` [Design D11.11, Ppp*lf*L*lIAPv] (cyclo(AP[dV]P[dP][dP][dNMeL][dF][NMeL][dNMeL]I)) reads 28.1 nm/s; that for `CC[C@H](C)[C@@H]1NC(=O)[C@@H]2CCCN2C(=O)[C@H]2CCCN2C(=O)[C@@H](CC(C)C)NC(=O)[C@@H](CC(C)C)N(C)C(=O)[C@@H](C(C)C)NC(=O)[C@H](C(C)C)NC(=O)[C@H]2CCCN2C(=O)[C@@H]2CCCN2C(=O)[C@H]([C@@H](C)CC)NC(=O)[C@H](C)N(C)C1=O` [Design D11.13, PpVv*llpPI*AI] (cyclo(I[NMeA]IP[dP]V[dV][dNMeL][dL][dP]P)), 14.3 nm/s.
Consider `CC(C)C[C@@H]1NC(=O)[C@H](CC(C)C)N(C)C(=O)[C@H]2CCCN2C(=O)[C@H]2CCCN2C(=O)[C@H](CC(C)C)NC(=O)[C@@H](CC(C)C)N(C)C(=O)[C@@H](C)NC(=O)[C@@H](CC(C)C)N(C)C(=O)[C@H]2CCCN2C(=O)[C@@H](CC(C)C)NC(=O)[C@@H](C)N(C)C1=O` [Design D11.15, Lpp*LL*alp*la*l] (cyclo(L[dNMeA][dL][dP][dNMeL][dA][dNMeL]L[dP][dP][NMeL])), for which the “PAMPA_Papp_Avg (apparent permeability)” value in data set [4] was 12.9 nm/s.
In the case of `CC(C)C[C@@H]1NC(=O)[C@@H](C)NC(=O)[C@H]2CCCN2C(=O)[C@@H]2CCCN2C(=O)[C@@H](C(C)C)NC(=O)[C@@H](CC(C)C)N(C)C(=O)[C@H]2CCCN2C(=O)[C@H]2CCCN2C(=O)[C@@H](C)N(C)C(=O)[C@H](CC(C)C)N(C)C(=O)[C@@H](Cc2ccccc2)NC1=O` [Design D11.16, Lf*L*app*lvPpa] (cyclo(L[dF][NMeL][dNMeA][dP][dP][dNMeL][dV]P[dP][dA])), the Papp in data set [1] was found to be 9.93 nm/s.
Same read-out and setting: the result for `CC[C@H](C)[C@@H]1NC(=O)[C@H](C(C)C)NC(=O)[C@@H](CC(C)C)N(C)C(=O)[C@H](Cc2ccccc2)NC(=O)[C@@H](CC(C)C)N(C)C(=O)[C@@H](C)N(C)C(=O)[C@H]2CCCN2C(=O)[C@@H]2CCCN2C(=O)[C@H](CC(C)C)NC(=O)[C@@H](C)N(C)C(=O)[C@@H]2CCCN2C1=O` [Design D11.20, P*aLPp*a*lF*lVI] (cyclo(F[dNMeL]VIP[dNMeA]LP[dP][dNMeA][dNMeL])) reads 11 nm/s; that for `CC[C@H](C)[C@@H]1NC(=O)[C@@H]2CCCN2C(=O)[C@H]2CCCN2C(=O)[C@@H](Cc2ccccc2)NC(=O)[C@@H](CC(C)C)N(C)C(=O)[C@H](C(C)C)NC(=O)[C@@H](CC(C)C)NC(=O)[C@@H]2CCCN2C(=O)[C@H]2CCCN2C(=O)[C@@H](C)N(C)C(=O)[C@H](C(C)C)N(C)C1=O` [Design D11.21, PI*V*apPlV*lfp] (cyclo(I[NMeV][dNMeA][dP]P[dL]V[dNMeL][dF][dP]P)), 2.06 nm/s.
On the same count and under the same terms, as for `CC(C)C[C@H]1NC(=O)[C@@H](C)NC(=O)[C@@H](C)NC(=O)[C@H]2CCCN2C(=O)[C@@H]2CCCN2C(=O)[C@H]2CCCN2C(=O)[C@@H](C)NC(=O)[C@@H](Cc2ccccc2)N(C)C(=O)[C@H]2CCCN2C(=O)[C@@H](CC(C)C)NC(=O)[C@@H](CC(C)C)NC1=O` [Design D11.25, lp*fapPpaall] (cyclo([dP][dA][dA][dL][dL][dL][dP][dNMeF][dA][dP]P)), the figure is 4.17 nm/s.
The same measure, in the same setting: the result for `CC[C@H](C)[C@@H]1NC(=O)[C@H](Cc2ccccc2)N(C)C(=O)[C@H]2CCCN2C(=O)[C@H]([C@@H](C)CC)NC(=O)[C@@H](C)N(C)C(=O)[C@@H](C)NC(=O)[C@@H]2CCCN2C(=O)[C@H]2CCCN2C(=O)[C@H](CC(C)C)NC(=O)[C@@H](CC(C)C)NC(=O)[C@H](CC(C)C)NC(=O)[C@H]2CCCN2C1=O` [Design D12.6, p*FIpLILpPa*aI] (cyclo([dA][dNMeA]I[dP][NMeF]I[dP]L[dL]L[dP]P)) reads 13.9 nm/s; that for `CC(C)C[C@@H]1C(=O)N(C)[C@@H](Cc2ccccc2)C(=O)N[C@@H](C(C)C)C(=O)N2CCC[C@H]2C(=O)NCC(=O)N2CCC[C@H]2C(=O)N(C)[C@H](CC(C)C)C(=O)N[C@@H](C(C)C)C(=O)N[C@H](CC(C)C)C(=O)N1C` [SEQ ID NO 69, *lvl*l*FVPGP] (cyclo(GP[dNMeL]V[dL][dNMeL][NMeF]VP)), 9.46 nm/s.
Consider `CC[C@@H](C)[C@H]1NC(=O)[C@H](CC(C)C)N(C)C(=O)[C@H]2CCCN2C(=O)[C@H](CC(C)C)NC(=O)[C@@H](Cc2ccccc2)N(C)C(=O)[C@H](CC(C)C)N(C)C(=O)[C@@H](C(C)C)NC(=O)[C@H](C)NC(=O)[C@H]2CCCN2C(=O)[C@@H]2CCCN2C1=O` [SEQ ID NO 94, *L*fLp*LiPpAv] (cyclo(A[dV][NMeL][dNMeF]L[dP][NMeL][dI]P[dP])), for which, in data set [1], the apparent permeability coefficient (Papp) amounted to 26.9 nm/s.
On the same count and under the same terms, as for `CC(C)C[C@@H]1NC(=O)[C@@H]2CCCN2C(=O)[C@@H](Cc2ccccc2)NC(=O)[C@H](C)N(C)C(=O)[C@H](CC(C)C)NC(=O)[C@H](CC(C)C)N(C)C(=O)[C@@H](C)NC(=O)[C@@H](CC(C)C)NC(=O)[C@@H]2CCCN2C(=O)[C@@H](Cc2ccccc2)NC1=O` [SEQ ID NO 108, LfPla*LL*AfP] (cyclo(L[NMeA][dF]PL[dF]P[dL][dA][NMeL])), the figure is 39.2 nm/s.
For the compound `CC[C@@H](C)[C@H]1NC(=O)[C@@H](CC(C)C)N(C)C(=O)[C@@H]2CCCN2C(=O)[C@H](C(C)C)NC(=O)[C@@H](C)N(C)C(=O)[C@@H]2CCCN2C(=O)[C@@H](CC(C)C)NC(=O)[C@@H](C(C)C)N(C)C(=O)[C@@H]2CCCN2C(=O)[C@H](C)NC(=O)[C@H](C(C)C)NC(=O)[C@@H]2CCCN2C1=O` [SEQ ID NO 117, VP*liPVAP*vlP*a] (cyclo(AP[dNMeV][dL]P[dNMeA]VP[dNMeL][dI]PV)), in data set [4], the “PAMPA_Papp_Avg (apparent permeability)” value worked out at 1 nm/s.
